In US20240101549A1, “N-(2-(4-CYANOTHIAZOLIDIN-3-YL)-2-OXOETHYL)-QUINOLINE-4-CARBOXAMIDES” (AstraZeneca AB, priority 2020, published 2024):
pIC50: −log10 of the molar value. ≈ marks a conversion by molar mass, not a printed value. Like-named read-outs stand apart in the source and are kept apart here. Blank lines part the entries; values can stand above or below the compound they belong to.

Experiments:
[1] = Metabolic stability in human liver microsomes (HLM); format: in vitro ADME; conditions: n = 1 or average of n = 2-3
Description: Metabolic stability in HLM was measured as described in J Comput Aided Mol Des 2015, 29, 795.

Rat Hepatocytes (rHep) = assay: Metabolic stability in rat hepatocytes (rHep); format: in vitro ADME; conditions: n = 1 or geometric mean of n = 2-3
Caco-2 cell permeability = format: in vitro ADME; conditions: human
Description: (§1) Caco-2 cell permeability was measured as described in Mol Pharm 2017, 14, 1601.

Kinetic solubility = format: physicochemical; conditions: kinetic from dmso stock
Description: Kinetic solubility was measured as described in Comput Aided Mol Des 2015, 29, 795.

Caco-2 cell = Caco-2 cell permeability; format: in vitro ADME; conditions: bidirectional (ABBA); for Caco2 Bidirectional (ABBA) A to B Papp / Caco2 Bidirectional (ABBA) B to A Papp: n = 1 or average of n = 2-4
Description: as §1

FAP = FAP (Macaca fascicularis, UniProt A0A2K5VGH4); assay: FAP plasma inhibition assay, cynomolgus plasma; format: biochemical; conditions: cynomolgus plasma diluted 1:40, 75 μM Ala-Pro-AMC; n = 1; read-out: FAP Cyno Plasma IC50
FAP, sequence (A0A2K5VGH4 entry or part of it): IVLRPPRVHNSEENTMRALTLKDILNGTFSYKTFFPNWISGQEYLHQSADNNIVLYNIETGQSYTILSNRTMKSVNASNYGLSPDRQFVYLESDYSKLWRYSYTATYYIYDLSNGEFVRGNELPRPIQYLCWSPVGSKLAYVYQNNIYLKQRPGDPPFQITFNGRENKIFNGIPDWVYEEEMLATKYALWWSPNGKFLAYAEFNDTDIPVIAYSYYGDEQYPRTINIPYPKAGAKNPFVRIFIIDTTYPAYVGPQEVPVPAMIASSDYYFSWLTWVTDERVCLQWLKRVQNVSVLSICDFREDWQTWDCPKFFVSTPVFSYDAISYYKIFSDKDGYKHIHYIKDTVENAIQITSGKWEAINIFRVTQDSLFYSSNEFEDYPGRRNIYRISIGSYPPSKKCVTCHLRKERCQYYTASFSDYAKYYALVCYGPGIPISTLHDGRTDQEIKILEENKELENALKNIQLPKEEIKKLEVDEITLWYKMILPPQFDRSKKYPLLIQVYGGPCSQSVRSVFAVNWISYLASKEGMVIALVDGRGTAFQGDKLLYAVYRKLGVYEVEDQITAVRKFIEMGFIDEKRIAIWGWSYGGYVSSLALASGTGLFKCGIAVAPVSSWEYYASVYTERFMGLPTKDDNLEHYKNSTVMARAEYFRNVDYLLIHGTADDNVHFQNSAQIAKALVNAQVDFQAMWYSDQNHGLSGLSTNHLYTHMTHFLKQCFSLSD
Description: D. FAP Plasma Inhibition Assay This assay was adapted from the method described in Example 237 for detection of FAP target engagement enzyme activity in plasma. […] Compounds were tested using 10 CR, 3 fold dilution series from 500 nM FAC. Two replicates for each assay point were run on the same plate. A fluorescence blank read was taken before substrate addition. […] Plates were incubated for 40 min at rt in the dark. […] IC50 values were determined by plotting % inhibition versus log compound concentration.

[2] = Caco-2, AB intrinsic, n = 1 or average of n = 2-4, read-out: Caco2 AB Intrinsic Papp

Structure (SMILES): COC1CCCN(c2ccc3nccc(C(=O)NCC(=O)N4CSC[C@H]4C#N)c3c2)C1 (mixture of isomers) [Example 41, N-(2-((R)-4-Cyanothiazolidin-3-yl)-2-oxoethyl)-6-((RS)-3-methoxypiperidin-1-yl)quinoline-4-carboxamide]
microsomal CLint [1]: 30 µL/min/mg | rHep CLint (Rat Hepatocytes (rHep)): 12 μL/min/1E6 | Papp A→B (Caco-2 cell permeability; [2]): 16 ×10⁻⁶ cm/s

Structure (SMILES): CC1CC(F)(F)CCN1c1ccc2nccc(C(=O)NCC(=O)N3CSC[C@H]3C#N)c2c1 (mixture of isomers) [Example 44, N-(2-((R)-4-Cyanothiazolidin-3-yl)-2-oxoethyl)-6-((RS)-4,4-difluoro-2-methylpiperidin-1-yl)quinoline-4-carboxamide]
rHep CLint (Rat Hepatocytes (rHep)): 160 μL/min/1E6

Structure (SMILES): CC1N(c2ccc3nccc(C(=O)NCC(=O)N4CSC[C@H]4C#N)c3c2)CC1(F)F (mixture of isomers) [Example 159, N-(2-((R)-4-Cyanothiazolidin-3-yl)-2-oxoethyl)-6-((RS)-3,3-difluoro-2-methylazetidin-1-yl)quinoline-4-carboxamide]
rHep CLint (Rat Hepatocytes (rHep)): 47 μL/min/1E6

Structure (SMILES): N#C[C@@H]1CSCN1C(=O)CNC(=O)c1ccnc2ccc(-c3ccnn3C3CCCCO3)cc12 (mixture of isomers) [Example 176]
rHep CLint (Rat Hepatocytes (rHep)): 15 μL/min/1E6 | solubility (Kinetic solubility): 800 µM (≈ 381 µg/mL)

Structure (SMILES): CC1(F)CCN(c2ccc3nccc(C(=O)NCC(=O)N4CSC[C@H]4C#N)c3c2)C1 (mixture of isomers) [Example 198, N-(2-((R)-4-Cyanothiazolidin-3-yl)-2-oxoethyl)-6-((RS)-3-fluoro-3-methylpyrrolidin-1-yl)quinoline-4-carboxamide]
microsomal CLint [1]: 20 µL/min/mg | rHep CLint (Rat Hepatocytes (rHep)): 22 μL/min/1E6

Structure (SMILES): N#C[C@@H]1CSCN1C(=O)CNC(=O)c1ccnc2ccc(N3CCOCC3C(F)(F)F)cc12 (single isomer, unassigned) [Example 84, N-(2-((R)-4-Cyanothiazolidin-3-yl)-2-oxoethyl)-6-((R*)-3-(trifluoromethyl)-morpholino)quinoline-4-carboxamide]
rHep CLint (Rat Hepatocytes (rHep)): 26 μL/min/1E6

Structure (SMILES): N#C[C@@H]1CSCN1C(=O)CNC(=O)c1ccnc2ccc(N3CCOCC3C(F)(F)F)cc12 (single isomer, unassigned) [Example 85, N-(2-((R)-4-Cyanothiazolidin-3-yl)-2-oxoethyl)-6-((R*)-3-(trifluoromethyl)-morpholino)quinoline-4-carboxamide]
rHep CLint (Rat Hepatocytes (rHep)): 35 μL/min/1E6 | solubility (Kinetic solubility): 800 µM (≈ 384 µg/mL)

Structure (SMILES): N#C[C@@H]1CSCN1C(=O)CNC(=O)c1ccnc2ccc(N3CC4(CCC4)C3)cc12 [Example 17, (R)—N-(2-(4-Cyanothiazolidin-3-yl)-2-oxoethyl)-6-(2-azaspiro[3.3]heptan-2-yl)quinoline-4-carboxamide]
microsomal CLint [1]: 48 µL/min/mg

Structure (SMILES): CC1(C)COC12CN(c1ccc3nccc(C(=O)NCC(=O)N4CSC[C@H]4C#N)c3c1)C2 [Example 18, (R)—N-(2-(4-Cyanothiazolidin-3-yl)-2-oxoethyl)-6-(3,3-dimethyl-1-oxa-6-azaspiro[3.3]heptan-6-yl)quinoline-4-carboxamide]
Papp A→B (Caco-2 cell permeability; [2]): 13 ×10⁻⁶ cm/s | Caco2 Bidirectional (ABBA) Efflux Ratio (Caco-2 cell): 34 | Caco2 Bidirectional (ABBA) A to B Papp (Caco-2 cell): 0.90 1E−6 · cm/s | Caco2 Bidirectional (ABBA) B to A Papp (Caco-2 cell): 31 1E−6 · cm/s

Structure (SMILES): COC1(C)CCN(c2ccc3nccc(C(=O)NCC(=O)N4CSC[C@H]4C#N)c3c2)CC1 [Example 42, (R)—N-(2-(4-Cyanothiazolidin-3-yl)-2-oxoethyl)-6-(4-methoxy-4-methylpiperidin-1-yl)quinoline-4-carboxamide]
solubility (Kinetic solubility): 850 µM (≈ 386 µg/mL)

Structure (SMILES): N#C[C@@H]1CSCN1C(=O)CNC(=O)c1ccnc2ccc(N3CCOC4(CCOCC4)C3)cc12 [Example 99, (R)—N-(2-(4-cyanothiazolidin-3-yl)-2-oxoethyl)-6-(1,9-dioxa-4-azaspiro[5.5]undecan-4-yl)quinoline-4-carboxamide]
Caco2 Bidirectional (ABBA) Efflux Ratio (Caco-2 cell): 46 | Caco2 Bidirectional (ABBA) A to B Papp (Caco-2 cell): 0.46 1E−6 · cm/s | Caco2 Bidirectional (ABBA) B to A Papp (Caco-2 cell): 21 1E−6 · cm/s

Structure (SMILES): N#C[C@@H]1CSCN1C(=O)CNC(=O)c1ccnc2ccc(N3CC4(CC(F)C4)C3)cc12 [Example 155, (R)—N-(2-(4-Cyanothiazolidin-3-yl)-2-oxoethyl)-6-(6-fluoro-2-azaspiro[3.3]heptan-2-yl)quinoline-4-carboxamide]
Caco2 Bidirectional (ABBA) Efflux Ratio (Caco-2 cell): 6.5 | Caco2 Bidirectional (ABBA) A to B Papp (Caco-2 cell): 4.2 1E−6 · cm/s | Caco2 Bidirectional (ABBA) B to A Papp (Caco-2 cell): 27 1E−6 · cm/s

Structure (SMILES): N#C[C@@H]1CSCN1C(=O)CNC(=O)c1ccnc2ccc(N3CC4(COC4)C3)cc12 [Example 166, (R)—N-(2-(4-Cyanothiazolidin-3-yl)-2-oxoethyl)-6-(2-oxa-6-azaspiro[3.3]heptan-6-yl)quinoline-4-carboxamide]
pIC50 (FAP): 9.52 | Papp A→B (Caco-2 cell permeability; [2]): 2 ×10⁻⁶ cm/s | Caco2 Bidirectional (ABBA) Efflux Ratio (Caco-2 cell): 24 | Caco2 Bidirectional (ABBA) A to B Papp (Caco-2 cell): 0.56 1E−6 · cm/s | Caco2 Bidirectional (ABBA) B to A Papp (Caco-2 cell): 13 1E−6 · cm/s

More lines, now with the values ahead:

microsomal CLint [1]: < 3 µL/min/mg | rHep CLint (Rat Hepatocytes (rHep)): <1 μL/min/1E6 | Papp A→B (Caco-2 cell permeability; [2]): 1.2 ×10⁻⁶ cm/s | solubility (Kinetic solubility): 50 µM (≈ 22.4 µg/mL)
Structure (SMILES): N#C[C@@H]1CSCN1C(=O)CNC(=O)c1ccnc2ccc(N3CC(O)C(F)(F)C3)cc12 (mixture of isomers) [Example 224, N-(2-((R)-4-Cyanothiazolidin-3-yl)-2-oxoethyl)-6-((RS)-3,3-difluoro-4-hydroxypyrrolidin-1-yl)quinoline-4-carboxamide]

microsomal CLint [1]: > 300 µL/min/mg | rHep CLint (Rat Hepatocytes (rHep)): 250 μL/min/1E6
Structure (SMILES): N#C[C@@H]1CSCN1C(=O)CNC(=O)c1ccnc2ccc(N3CCCC3C3CC3)cc12 (single isomer, unassigned) [Example 199, N-(2-((R)-4-Cyanothiazolidin-3-yl)-2-oxoethyl)-6-((R*)-2-cyclopropyl-pyrrolidin-1-yl)quinoline-4-carboxamide]

HLM CLint [1]: >300 µL/min/mg | rHep CLint (Rat Hepatocytes (rHep)): >300 μL/min/1E6
Structure (SMILES): N#C[C@@H]1CSCN1C(=O)CNC(=O)c1ccnc2ccc(N3CCCC3C3CC3)cc12 (single isomer, unassigned) [Example 200, N-(2-((R)-4-Cyanothiazolidin-3-yl)-2-oxoethyl)-6-((R*)-2-cyclopropyl-pyrrolidin-1-yl)quinoline-4-carboxamide]

microsomal CLint [1]: < 3 µL/min/mg | rHep CLint (Rat Hepatocytes (rHep)): <1 μL/min/1E6 | Papp A→B (Caco-2 cell permeability; [2]): 4.8 ×10⁻⁶ cm/s | solubility (Kinetic solubility): 90 µM (≈ 38.1 µg/mL)
Structure (SMILES): CC1CCN(c2ccc3nccc(C(=O)NCC(=O)N4CSC[C@H]4C#N)c3c2)C1=O (single isomer, unassigned) [Example 201, N-(2-((R)-4-Cyanothiazolidin-3-yl)-2-oxoethyl)-6-((R*)-3-methyl-2-oxopyrrolidin-1-yl)quinoline-4-carboxamide]

rHep CLint (Rat Hepatocytes (rHep)): <1 μL/min/1E6
Structure (SMILES): CC1CCN(c2ccc3nccc(C(=O)NCC(=O)N4CSC[C@H]4C#N)c3c2)C1=O (single isomer, unassigned) [Example 202, N-(2-((R)-4-Cyanothiazolidin-3-yl)-2-oxoethyl)-6-((R*)-3-methyl-2-oxopyrrolidin-1-yl)quinoline-4-carboxamide]

rHep CLint (Rat Hepatocytes (rHep)): 2.9 μL/min/1E6 | Papp A→B (Caco-2 cell permeability; Caco-2, bidirectional (ABBA), A to B, n = 1 or average of n = 2-4, read-out: Caco2 Bidirectional (ABBA) A to B Papp): 0.4 ×10⁻⁶ cm/s | Papp B→A (Caco-2 cell permeability; Caco-2, bidirectional (ABBA), B to A, n = 1 or average of n = 2-4, read-out: Caco2 Bidirectional (ABBA) B to A Papp): 8 ×10⁻⁶ cm/s | efflux ratio (Caco-2 cell permeability; Caco-2, bidirectional (ABBA), read-out: Caco2 Bidirectional (ABBA) Efflux Ratio): 20
Structure (SMILES): CC1CCCN(c2ccc3nccc(C(=O)NCC(=O)N4CSC[C@H]4C#N)c3c2)C1=O (single isomer, unassigned) [Example 203, N-(2-((R)-4-Cyanothiazolidin-3-yl)-2-oxoethyl)-6-((R*)-3-methyl-2-oxopiperidin-1-yl)quinoline-4-carboxamide]

microsomal CLint [1]: 8 µL/min/mg | rHep CLint (Rat Hepatocytes (rHep)): 1.8 μL/min/1E6
Structure (SMILES): CC1CCCN(c2ccc3nccc(C(=O)NCC(=O)N4CSC[C@H]4C#N)c3c2)C1=O (single isomer, unassigned) [Example 204, N-(2-((R)-4-Cyanothiazolidin-3-yl)-2-oxoethyl)-6-((R*)-3-methyl-2-oxopiperidin-1-yl)quinoline-4-carboxamide]

microsomal CLint [1]: 27 µL/min/mg | solubility (Kinetic solubility): 230 µM (≈ 99.2 µg/mL)
Structure (SMILES): N#C[C@@H]1CSCN1C(=O)CNC(=O)c1ccnc2ccc(N3C[C@@H](F)[C@H](F)C3)cc12 (single isomer, unassigned) [Example 214]
